This is an account of results in patent US20060241096A1, “Agent for preventing or treating organ functional disorders and organ dysfunction” (priority 2001, published 2006).

In one series the test system is myocardial infarction. As to the kind of experiment: Effect on myocardial infarction (Test Example 5). Format: in vivo, rat. The note with it: male Wistar rats, left coronary artery ligated 25 min, 2 hrs reperfusion, mean ± standard error, N = 7-10. Here is the method:
Each of 6-week old male Wistar rats (7-10 rats per group) was forced oral administration of vehicle, test compound 1 (2, 20 mg/kg), Atorvastatin (2, 20 mg/kg), Simvastatin (2, 20 mg/kg) using a gastric sonde by the volume of 1 mL/kg and once per day for 15 days. After 1 hr of the final administration, the anterior descending-branch of left coronary artery was ligated and reperfused after 25 min. After 2 hrs of reperfusion, Evance blue was intravenously injected from the right cervical vein so that the non-ischemic area was stained and can be distinguished from the ischemic area, and the rats were slaughtered. The ischemic area was carved out, and the living area was stained using p-nitroblue tetrazolium and distinguished from the necrotic area (portion of myocardial infarction). The area of myocardial infarction was calculated by the weight ratio relative to the ischemic area (Table 5).

Series [1] deals with ubiquinone (CoQ9) in heart. As to the kind of experiment: Ubiquinone increasing effect in heart (Test Example 1). Format: in vivo, rat. The note with it: male SD rats, mean ± standard error, N = 8. Here is the method:
(§1) Each of 6-week old male SD rats (eight rats per group) was forced oral administration of a vehicle or test compound 1 using a gastric sonde by the volume of 5 mL/kg so that the doses became 6, 20, 60 mg/kg, respectively, once a day for 14 days. On the morning after 14 times of administration, the animals were beheaded to slaughter. Hearts were collected immediately, frozen in liquid nitrogen and stored at −80° C. On the following day, the hearts were homogenized and oxidized with iron(III) chloride. After extraction with ethanol/hexane, the concentration of ubiquinone was determined by HPLC (Table 1).

Series [2] relates to ubiquinone (CoQ9, CoQ10) in brain. The series can be described thus: Ubiquinone increasing effect in brain (Test Example 3). Format: in vivo, rat. The note with it: male SD rats, 14 administrations, arteria cerebri media occluded 2 h, 8 hrs reperfusion, right cerebral cortices and striata, mean ± standard error, N = 8. Here is the method: Each of 6-week old male SD rats (eight rats per group) was forced oral administration of a vehicle or test compound 1 using a gastric sonde by the volume of 5 mL/kg so that the doses became 2, 20 mg/kg, respectively. The day after 14 times of administration, a silicone plug was inserted from the carotid artery under halothane anesthetic to occlude proximal portion of the arteria cerebri media. After two hours, the plug was removed under light anesthetic, and reperfusion was carried out. After 8 hrs of reperfusion, the rats were beheaded to slaughter. The right cerebral cortices and striata were collected, frozen on dry ice and preserved at −80° C. On the following day, the right cerebral cortices and striata were homogenized and oxidized with iron(III) chloride. After extraction with ethanol/hexane, the concentration of ubiquinone was determined by HPLC (Table 3).

In the next series the test system is cerebral infarction. The series can be described thus: Cerebral infarction suppressing effect (Test Example 4). The note with it: male SD rats, 14 administrations, arteria cerebri media occluded 2 h, 48 hrs reperfusion, TTC staining, mean ± standard error, N = 19-22. The class given is in vivo, rat. On the procedure: Each of 6-week old male SD rats (19 to 22 rats per group) was forced oral administration of a vehicle or test compound 1 using a gastric sonde by the volume of 5 mL/kg so that the doses became 2, 20 mg/kg, respectively, using a gastric sonde. The day after 14 times of administration, a silicone plug was inserted from the carotid artery under halothane anesthetic to occlude proximal portion of the arteria cerebri media. After two hours, the plug was removed under light anesthetic, and reperfusion was carried out. After 48 hrs of reperfusion, the rats were beheaded to slaughter. Six pieces of sliced brain from the forehead (thickness: 2 mm) were carved out and subjected to TTC staining (1% TTC, 37° C., 15 min). The TTC-stained image was photographed by a digital camera, and the area of cerebral infarction was measured by an image analyzer. (Table 4)

Series [3] deals with ubiquinone (CoQ9) in liver and heart. As to the kind of experiment: Ubiquinone increasing effect in liver and heart (Test Example 2). The class given is in vivo, rat. To be noted: male SD rats, mean ± standard error, N = 8. Here is the method:
as §1, with “to slaughter. Liver and hearts were collected” for “to slaughter. Hearts were collected”, “day, the livers and hearts were” for “day, the hearts were”, “HPLC (Table 2).” for “HPLC (Table 1).”

Setting [4] is: 2 mg/kg oral once per day for 15 days.
Where [5] appears, read: 20 mg/kg oral once per day for 15 days.
The mark [6] stands for this setting: 6 mg/kg oral once a day for 14 days.
Where [7] appears, read: 20 mg/kg oral once a day for 14 days.
Where [8] appears, read: 60 mg/kg oral once a day for 14 days.

Marks after values point to notes of the source that are not given here.

For `CC(C)c1c(C(=O)Nc2ccccc2)c(-c2ccccc2)c(-c2ccc(F)cc2)n1CC[C@@H](O)C[C@@H](O)CC(=O)O` [Atorvastatin], the “Area of myocardial infarction” value stood at 51 ± 4 % ischemic area with myocardial infarction (setting [4]) and 47 ± 6 % ischemic area in the series on myocardial infarction (setting [5]).
Take `COc1cccc([C@H]2O[C@H](CC(=O)N3CCC(CC(=O)O)CC3)C(=O)N(CC(C)(C)COC(C)=O)c3ccc(Cl)cc32)c1OC` [Compound 1, N-[[(3R,5S)-1-(3-acetoxy-2,2-dimethylpropyl)-7-chloro-5-(2,3-dimethoxyphenyl)-2-oxo-1,2,3,5-tetrahydro-4,1-benzoxazepin-3-yl]acetyl]piperidine-4-acetic acid]: the “Amount of CoQ9 in heart” value in series [1] (setting [6]) was found to be 214.4 ± 6.6 μg/g heart; in series [1] (setting [7]), 215.3 ± 5.7 μg/g heart; in series [1] (setting [8]), 225.0 ± 4.6 μg/g heart. The entries for the “Amount of CoQ9 in brain” value in series [2] (2 mg/kg oral) and in series [2] (20 mg/kg oral) were 22.0 ± 0.4 μg/g brain and 24.9 ± 0.5 μg/g brain, respectively. The “Amount of CoQ10 in brain” value in series [2] (2 mg/kg oral) amounted to 13.0 ± 0.3 μg/g brain; in series [2] (20 mg/kg oral), 14.7 ± 0.3 μg/g brain. For the same compound, the “Volume of cerebral infarction” value is given as 289 ± 27 mm^3 with cerebral infarction (2 mg/kg oral) and 220 ± 35* mm^3 in the series on cerebral infarction (20 mg/kg oral). Moreover, the results for the “Area of myocardial infarction” value in the series on myocardial infarction (setting [4]) and in the series with myocardial infarction (setting [5]) were 61 ± 4 % ischemic area and 43 ± 2 % ischemic area, respectively.
Turning to `COc1cccc([C@H]2O[C@H](CC(=O)Nc3cccc(CCC(=O)O)c3)C(=O)N(CC(C)(C)CO)c3ccc(Cl)cc32)c1OC` [Compound 2, 3-[3-[[(3R,5S)-7-chloro-5-(2,3-dimethoxyphenyl)-1-(3-hydroxy-2,2-dimethylpropyl)-2-oxo-1,2,3,5-tetrahydro-4,1-benzoxazepin-3-yl]acetyl]aminophenyl]propionic acid], the melting point fell in the range of 141 to 144 °C. Besides, in series [3] (setting [6]), the “Amount of CoQ9 in heart” value is 202.7 ± 2.7 μg/g heart and the “Amount of CoQ9 in liver” value is recorded as 105.2 ± 3.5 μg/g liver. In addition, in series [3] (setting [7]), the “Amount of CoQ9 in heart” value is reported as 208.3 ± 4.6 μg/g heart and the “Amount of CoQ9 in liver” value came out at 117.6 ± 4.6 μg/g liver. Also, in series [3] (setting [8]), the “Amount of CoQ9 in heart” value is 204.7 ± 4.0 μg/g heart and the “Amount of CoQ9 in liver” value was determined as 125.4 ± 3.4 μg/g liver.
For `CCC(C)(C)C(=O)O[C@H]1C[C@@H](C)C=C2C=C[C@H](C)[C@H](CC[C@@H]3C[C@@H](O)CC(=O)O3)[C@H]21` [Simvastatin], the “Area of myocardial infarction” value amounted to 51 ± 3 % ischemic area in the series with myocardial infarction (setting [4]) and 51 ± 2 % ischemic area in the series with myocardial infarction (setting [5]).
